# Laboratory results taken from paper PMC5329948, “Caspase vinyl sulfone small molecule inhibitors prevent axonal degeneration in human neurons and reverse cognitive impairment in Caspase-6-overexpressing mice” (Molecular Neurodegeneration, 2017).
# Where “and” joins values, the source holds several entries; their conditions need not be identical. Equal entries are not always repeated.
# What was measured:
# [1] = Blood-brain barrier permeability by LC/MS-MS after carotid artery injection; format: in vivo, mouse; conditions: for concentration at 5 min: male, Casp6-expressing transgenic mice, mouse, in vivo
# Description: Only males were used and littermates from each genotype (wild type (WT)/WT, WT/Cre, & knock-in (KI/)Cre) were tested together. The experimenter was blind to genotype and treatment groups. Mice were administered 20 mg/kg NWL-117 or physiological saline (0.9% NaCl) by intraperitoneal injections two times 48 h apart. […] Blood brain barrier permeability of NWL-117 caspase inhibitor: Briefly, 18–22 month old Casp6 mice were anesthetised with isoflurane, warmed with a heating blanket, and their physiological vitals (heart rate, body temperature, and respiration) monitored. The skin over the mouse’s neck was shaved, xylocaine applied, and an incision was made along the midline. Under a surgical microscope, the right carotid artery was gently separated from surrounding tissue. Two suture threads were placed at the proximal and distal ends of the carotid, and a small incision was made along the carotid wall. A micro-catheter (attached to a 1 ml syringe controlled by a micropump) was inserted and pushed to the entrance of the internal carotid artery. The catheter was secured in place using suture thread. NWL-117 (20 mg/kg) was infused via the micro-catheter using a pump set at 50 μL/min (total volume between 64 μL and 130 μL). After 5 min, blood was collected by intra-cardiac puncture, the mouse was perfused through the heart with ice cold saline for 2–3 min. The brain was removed and hippocampi were dissected and frozen on dry ice and stored. Samples were sent to the Biopharmacy platform at the University of Montreal (Quebec, Canada) for liquid chromatography and tandem mass spectrometry analysis. The integrity of the blood-brain barrier was confirmed by injecting 3% Evan’s blue solution in 20 month old Casp6 mice. Mouse cognitive analysis by novel object recognition: Mice were handled during 5 min for one week prior to behavioral tests. Novel object recognition (NOR) task was administered in three phases: habituation, familiarization (pre-exposure), and test phase. For habituation, mice were placed in the NOR box (80 cm x 80 cm, Stoelting Co, Wood Dale, IL, USA) for 5 min. After 24 h, the pre-exposure phase was initiated by allowing the animals to explore two identical objects inside the NOR box. Then, following a 2 h gap, mice were re-introduced to the NOR box which now contained a familiar and a novel object. The position of the novel object was counterbalanced between animals to avoid any bias related to a preference in the location of the new object and the use of potential confounding spatial cues. The objects were located in the middle of the NW and SE quadrants of the box, equidistantly from the box corners and from each other. The mice were placed in the middle of the SW quadrant. Washing the box and objects with 70% ethanol eliminated odour cues. The number of times touching each object was manually recorded, while the total distance, percent time moving, and number of entries into virtual cells were recorded using the HVS 2100 automated video tracking system (HVS Image, Buckingham, UK). Animals whose exploration was considered insufficient to allow recognition (<10 s per object) during the familiarization phase were excluded from analysis. Different object sets were used in the pre- and post-tests. Immunohistochemistry on mouse brain slices: Following behavioural analysis, animals were anaesthetized under isoflurane and perfused intracardially with ice cold saline for 7 min and 4% paraformaldehyde for 20 min. […]
# [2] = tested on: Casp6-overexpressing KI/Cre mice; assay: Novel object recognition task in Casp6-overexpressing KI/Cre mice; format: in vivo, mouse; conditions: 20 mg/kg i.p.
# Description: Casp6 transgenic mouse model: All animal procedures followed the Canadian Council on Animal Care guidelines and were approved by the McGill Animal care committees. Sixteen to 20 month old C57BL/6 J mice were bred and aged in the pathogen-free Goodman Cancer Research Centre Mouse Transgenic Facility at McGill University. Mice were housed in a temperature-controlled room at 22 °C and were kept on a 12 h light/dark cycle. Food and water were available at libitum. Casp6 overexpressing mice (KI/Cre) express Casp6p20p10 under the CAG promoter (CMV immediate early enchancer/chicken β-actin promoter fusion) in the CA1 pyramidal cell layer of the hippocampus under the control of calmodulin kinase IIa (CAMKIIa)-regulated Cre expression.
# Only males were used and littermates from each genotype (wild type (WT)/WT, WT/Cre, & knock-in (KI/)Cre) were tested together. The experimenter was blind to genotype and treatment groups. Mice were administered 20 mg/kg NWL-117 or physiological saline (0.9% NaCl) by intraperitoneal injections two times 48 h apart. […] Blood brain barrier permeability of NWL-117 caspase inhibitor: Briefly, 18–22 month old Casp6 mice were anesthetised with isoflurane, warmed with a heating blanket, and their physiological vitals (heart rate, body temperature, and respiration) monitored. The skin over the mouse’s neck was shaved, xylocaine applied, and an incision was made along the midline. Under a surgical microscope, the right carotid artery was gently separated from surrounding tissue. Two suture threads were placed at the proximal and distal ends of the carotid, and a small incision was made along the carotid wall. A micro-catheter (attached to a 1 ml syringe controlled by a micropump) was inserted and pushed to the entrance of the internal carotid artery. The catheter was secured in place using suture thread. […] The number of times touching each object was manually recorded, while the total distance, percent time moving, and number of entries into virtual cells were recorded using the HVS 2100 automated video tracking system (HVS Image, Buckingham, UK). […]
# [3] = Casp6 mice, 20 mg/kg carotid artery injection, 5 min, one value per animal, 20 mg/kg
smiles,measurement,setting,value
CCC(C)[C@H](NC(=O)[C@H](CCC(=O)O)NC(=O)[C@@H](NC(=O)OCc1ccccc1)C(C)C)C(=O)N[C@H](/C=C/S(C)(=O)=O)CC(=O)O (some centres unmarked) [NWL-117],Hippocampus concentration,[1]; [3],193 nM and 816 nM and 67.9 nM and 356 nM and 879 nM
same,Plasma concentration,[1]; [3],48.521 µM and 3.416 µM and 8.998 µM and 7.408 µM and 25.425 µM
same,Ratio of [hippocampal]/[plasma],[1]; [3],0.004 and 0.239 and 0.008 and 0.048 and 0.035
same,concentration at 5 min,[1],3.4 to 48 µM
same,concentration at 5 min,[1]; 20 mg/kg,0.0679 to 0.879 µM
same,locomotor or exploratory activities,[2]; two injections,no effect
same,NOR performance in KI/Cre mice,[2]; two injections 48 h apart,regained normal NOR performance
same,NOR performance in control mice,"[2]; two injections 48 h apart, WT/WT and WT/Cre",performed equally to saline-treated mice
